The text below walks through data of PubChem BioAssay AID248 (DTP/NCI, 2004).

Each structure is given as a SMILES string. Where “and” joins values, the source holds several entries; their conditions need not be identical. Identical values can stand only once. Inconclusive results and toxic doses are left out.

The test has as its system L1210 leukemia ip in BDF1 mice, survival T/C. Put plainly: NCI In Vivo Anticancer Drug Screen. Data for tumor model L1210 Leukemia (intraperitoneal) in B6D2F1 (BDF1) mice. The settings on record: endpoint: mean survival time, higher = longer survival. In outline:
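Transplanted-tumor mice were given test agent; controls received vehicle only. Survival readings from the two groups were divided (treated over control).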

The mark [1] stands for this setting: dose: 100.0 mg/kg/injection, schedule: Q04DX003 (ip), vehicle: saline.
Setting [2] is: dose: 200.0 mg/kg/injection, schedule: Q04DX003 (ip), vehicle: saline.
The mark [3] stands for this setting: dose: 100.0 mg/kg/injection, schedule: Q01DX009 (ip), vehicle: Klucel (hydroxypropylcellulose) (HPC).
The mark [4] stands for this setting: dose: 200.0 mg/kg/injection, schedule: Q01DX009 (ip), vehicle: Klucel (hydroxypropylcellulose) (HPC).
Where [5] appears, read: dose: 100.0 mg/kg/injection, schedule: Q01DX001 (ip), vehicle: saline.

`CCCc1nc2c(nc1C)C(=O)C=CC2=O`: for the setting “dose: 9.5 mg/kg/injection, schedule: Q01DX001 (ip), vehicle: other”, the T/C was 98 % of control.

As to `CCO/C=C1\SC(=S)N(Cc2ccccc2)C1=O`, the T/C (dose: 100.0 mg/kg/injection, schedule: Q04DX003 (ip), vehicle: saline with Tween-80) is 94 % of control; the T/C (dose: 200.0 mg/kg/injection, schedule: Q04DX003 (ip), vehicle: saline with Tween-80) was 99 % of control; the T/C (dose: 400.0 mg/kg/injection, schedule: Q04DX003 (ip), vehicle: saline with Tween-80) was 102 % of control.

Consider `COc1ccc(OC)c2c1C(=O)CC2C` (centres undefined), for which the T/C was 100 % of control (dose: 100.0 mg/kg/injection, schedule: Q01DX009 (ip), vehicle: saline); 96 % of control under setting [1]; 96 % of control (dose: 200.0 mg/kg/injection, schedule: Q01DX009 (ip), vehicle: saline); 96 % of control under setting [2]; 91 % of control (dose: 400.0 mg/kg/injection, schedule: Q04DX003 (ip), vehicle: saline).

In the case of `CCCCNC(=O)c1n[se]nc1NC(N)=O`, the T/C by setting is: (dose: 25.0 mg/kg/injection, schedule: Q01DX Z (ip), vehicle: carboxymethylcellulose (CMC)) 91 % of control; (dose: 37.5 mg/kg/injection, schedule: Q01DX Z (ip), vehicle: carboxymethylcellulose (CMC)) 89 % of control; (dose: 50.0 mg/kg/injection, schedule: Q01DX Z (ip), vehicle: carboxymethylcellulose (CMC)) 90 % of control.

Turning to `CCCC(C)c1c(N)nc(N)[nH]c1=O` (centres undefined), the T/C is, setting by setting: (dose: 80.0 mg/kg/injection, schedule: Q01DX001 (ip), vehicle: Klucel (hydroxypropylcellulose) (HPC)) 103 % of control; (dose: 160.0 mg/kg/injection, schedule: Q01DX001 (ip), vehicle: Klucel (hydroxypropylcellulose) (HPC)) 92 % of control; (dose: 320.0 mg/kg/injection, schedule: Q01DX001 (ip), vehicle: Klucel (hydroxypropylcellulose) (HPC)) 94 % of control.

As to `CCOc1ccc(/C=C2\C=Nc3ccccc32)cc1`, the T/C under setting [3] is 91 % of control and the T/C under setting [4] was 99 % of control.

For `C[PH+](c1ccccc1)c1ccccc1.C[PH+](c1ccccc1)c1ccccc1.[Br][Pd][Br]`, the T/C is 98 % of control (dose: 50.0 mg/kg/injection, schedule: Q04DX003 (ip), vehicle: saline); 105 % of control under setting [1]; 100 % of control under setting [2].

Regarding `O=S1(=O)Cc2ccccc2-c2ccccc2C1Cl` (centres undefined), the T/C is 100 % of control (dose: 50.0 mg/kg/injection, schedule: Q04DX002 (ip), vehicle: Klucel (hydroxypropylcellulose) (HPC)); 98 % of control under setting [3]; 100 % of control (dose: 100.0 mg/kg/injection, schedule: Q04DX002 (ip), vehicle: Klucel (hydroxypropylcellulose) (HPC)); 100 % of control under setting [4]; 97 % of control (dose: 200.0 mg/kg/injection, schedule: Q04DX002 (ip), vehicle: Klucel (hydroxypropylcellulose) (HPC)); 96 % of control (dose: 400.0 mg/kg/injection, schedule: Q01DX009 (ip), vehicle: Klucel (hydroxypropylcellulose) (HPC)).

Turning to `C=C1C(=O)OC2C3=C(C)C(=O)CC3C3(C)CC3C12` (centres undefined), the T/C (dose: 50.0 mg/kg/injection, schedule: Q01DX001 (ip), vehicle: water) was 103 % of control.

Turning to `Nc1ncnc2c1nnn2C1CC2COP(=O)(O)OC2C1O` (centres undefined), the T/C is, setting by setting: (dose: 44.0 mg/kg/injection, schedule: Q01DX007 (ip), vehicle: saline with Tween-80) 103 % of control; (dose: 67.0 mg/kg/injection, schedule: Q01DX007 (ip), vehicle: saline with Tween-80) 114 % of control; (dose: 100.0 mg/kg/injection, schedule: Q01DX007 (ip), vehicle: saline with Tween-80) 101 % of control.

`O=P(Oc1ccccc1)(OP(=O)(Oc1ccccc1)N(CCCl)CCCl)N(CCCl)CCCl` (centres undefined): the T/C is, setting by setting: (dose: 12.5 mg/kg/injection, schedule: Q01DX Z (ip), vehicle: methylcellulose (MC)) 97 % of control; (dose: 25.0 mg/kg/injection, schedule: Q01DX Z (ip), vehicle: methylcellulose (MC)) 102 % of control; (dose: 50.0 mg/kg/injection, schedule: Q01DX Z (ip), vehicle: methylcellulose (MC)) 96 % of control; (dose: 100.0 mg/kg/injection, schedule: Q01DX Z (ip), vehicle: methylcellulose (MC)) 96 % of control; (dose: 250.0 mg/kg/injection, schedule: Q01DX Z (ip), vehicle: other) 98 % of control; (dose: 500.0 mg/kg/injection, schedule: Q01DX Z (ip), vehicle: other) 104 % of control.

On to `CC(C)/C=C(\C#N)C(=O)O`, for which the T/C runs as follows: (dose: 12.5 mg/kg/injection, schedule: Q04DX003 (ip), vehicle: Klucel (hydroxypropylcellulose) (HPC)) 97 % of control; (dose: 25.0 mg/kg/injection, schedule: Q01DX009 (ip), vehicle: Klucel (hydroxypropylcellulose) (HPC)) 95 % of control; (dose: 25.0 mg/kg/injection, schedule: Q04DX003 (ip), vehicle: Klucel (hydroxypropylcellulose) (HPC)) 101 % of control; (dose: 50.0 mg/kg/injection, schedule: Q01DX009 (ip), vehicle: Klucel (hydroxypropylcellulose) (HPC)) 95 % of control; (dose: 50.0 mg/kg/injection, schedule: Q04DX003 (ip), vehicle: Klucel (hydroxypropylcellulose) (HPC)) 98 % of control.

Consider `CC(=O)OCC1OC(N2c3ccccc3CC2C)C(OC(C)=O)C(OC(C)=O)C1OC(C)=O` (centres undefined), for which the T/C reads like this: (dose: 25.0 mg/kg/injection, schedule: Q01DX001 (ip), vehicle: saline) 94 % of control; (dose: 50.0 mg/kg/injection, schedule: Q01DX001 (ip), vehicle: saline) 94 % of control; under setting [5], 94 % of control.

For the compound `CCC(NC(=O)CCl)C(=O)O` (centres undefined), the T/C (dose: 100.0 mg/kg/injection, schedule: Q04DX002 (ip), vehicle: saline) is 120 % of control and the T/C (dose: 200.0 mg/kg/injection, schedule: Q04DX002 (ip), vehicle: saline) was 103 % of control.

Consider `Cc1csc[n+]1Cc1ccc([N+](=O)[O-])cc1`, for which the T/C runs as follows: (dose: 5.0 mg/kg/injection, schedule: Q01DX001 (ip), vehicle: saline) 100 % of control; (dose: 10.0 mg/kg/injection, schedule: Q01DX001 (ip), vehicle: saline) 102 % of control; (dose: 20.0 mg/kg/injection, schedule: Q01DX001 (ip), vehicle: saline) 102 % of control; (dose: 40.0 mg/kg/injection, schedule: Q01DX001 (ip), vehicle: saline) 103 % of control; (dose: 80.0 mg/kg/injection, schedule: Q01DX001 (ip), vehicle: saline) 100 % of control; under setting [5], 98 % of control.

As for `S=C(c1ccco1)N1CCOCC1`, the T/C by setting is: (dose: 75.0 mg/kg/injection, schedule: Q01DX001 (ip), vehicle: carboxymethylcellulose (CMC)) 97 % of control; (dose: 75.0 mg/kg/injection, schedule: Q01DX009 (ip), vehicle: saline with Tween-80) 102 % of control; (dose: 75.0 mg/kg/injection, schedule: Q04DX003 (ip), vehicle: saline with Tween-80) 104 % of control; (dose: 150.0 mg/kg/injection, schedule: Q01DX001 (ip), vehicle: carboxymethylcellulose (CMC)) 104 % of control; (dose: 150.0 mg/kg/injection, schedule: Q01DX009 (ip), vehicle: saline with Tween-80) 100 % of control; (dose: 150.0 mg/kg/injection, schedule: Q04DX003 (ip), vehicle: saline with Tween-80) 97 % of control. Also, the T/C is, setting by setting: (dose: 300.0 mg/kg/injection, schedule: Q01DX001 (ip), vehicle: carboxymethylcellulose (CMC)) 98 % of control; (dose: 300.0 mg/kg/injection, schedule: Q04DX003 (ip), vehicle: saline with Tween-80) 89 % of control.

With `Fc1ccccc1CSc1ncnc2nc[nH]c12`, the T/C is, setting by setting: (dose: 40.0 mg/kg/injection, schedule: Q01DX009 (ip), vehicle: saline) 115 % of control; (dose: 150.0 mg/kg/injection, schedule: Q01DX009 (ip), vehicle: saline) 157 % of control; (dose: 175.0 mg/kg/injection, schedule: Q01DX001 (ip), vehicle: saline) 117 % of control and 118 % of control; (dose: 265.0 mg/kg/injection, schedule: Q01DX001 (ip), vehicle: saline) 112 % of control and 120 % of control; (dose: 400.0 mg/kg/injection, schedule: Q01DX001 (ip), vehicle: saline) 122 % of control; (dose: 600.0 mg/kg/injection, schedule: Q01DX001 (ip), vehicle: saline) 100 % of control.

For the compound `CC1(C)C2CCC1(C)C(/C=N/NC(N)=O)C2` (centres undefined), the T/C runs as follows: (dose: 100.0 mg/kg/injection, schedule: Q01DX001 (ip), vehicle: Klucel (hydroxypropylcellulose) (HPC)) 94 % of control; (dose: 200.0 mg/kg/injection, schedule: Q01DX001 (ip), vehicle: Klucel (hydroxypropylcellulose) (HPC)) 102 % of control; (dose: 400.0 mg/kg/injection, schedule: Q01DX001 (ip), vehicle: Klucel (hydroxypropylcellulose) (HPC)) 105 % of control.
